On the set-up of series [1]: species or system pig. From the text: Ex vivo assessment of ocular biodistribution of ICG with OCLX-SCDD Proof of Concept (POC) prototypes and Clearside needles at 900 and 1100 μm in pig eyes.
In this non-GLP study, we evaluated the ability of OCLX-SCDD to deliver accurately to the suprachoroidal space (SCS) and determined the optimal needle length for effective delivery. […] Ex vivo testing involved a comparative analysis of the dye's ocular biodistribution between OCLX-SCDD POCs 1-4 and the established Clearside device, allowing us to determine whether the new design offers improved delivery accuracy and effectiveness. Forty pig eyes were obtained from a farm 1 day prior to testing and SC 120 μl injections (5 mg/ml) were performed (one supertemporal injection site/eye) with ICG. Needles used included 900 μm and 1100 μm length samples from both Oculogenex and Clearside (CLS-900 and CLS-1100). One hour after injection, dissection of the eyes was performed. Images were taken with an iPhone 15 Pro camera after removal of retina, RPE/Choroidal tissue. The ICG-stained area was measured by a masked reader with Image-pro Plus 6 (Media Cybernetisc, Rockville, MD, USA) to objectively assess ICG distribution through software.

Series [2] in a line: In vivo ocular biodistribution of ICG with OCLX-SCDD POC4 and Clearside needles at 1100 μm. Details: species or system Yucatan minipig. The conditions noted are these: for ICG stained area, total coverage area: ICG 5 mg/ml SC, 1 h after injection. From the text:
In Vivo assessment of ocular biodistribution of ICG with the OCLX-SCDD POC prototype and Clearside needles at 1100 μm in pig eyes.
Suprachoroidal injections enable precise, targeted delivery to the retina, retinal pigment epithelium (RPE), and choroid, potentially offering higher bioavailability to the diseased tissues while minimizing impact on anterior segment tissues. To improve the outcome of gene therapy for AMD through the SCS, we tested if the POC4 SCDD results in ICG dye at the back of the eye. […] This allows entrance into the suprachoroidal space in 4-month-old male minipigs (n=4). Indocyanine Green (ICG), 5 mg/ml, was injected using Clearside 1100 μm (OS) or POC4 of the OCLX-SCDD 1100 μm prototype device (OD) as follows: (1) Mark and confirm selected injection site; (2) Insert the microneedle, creating a small dimple on the ocular surface to allow the tissue to displace gently while the needle enters the suprachoroidal space; (3) Inject slowly and deliberately over 5 seconds to decrease discomfort; (4) After finishing the drug injection, hold the microinjector in place for an additional 3-5 seconds. Light pressure should be applied with a cotton swab after microinjector removal for about 5 seconds; and (5) Perform OCT imaging. (6) Euthanasia was performed according to the IACUC protocol, and 1 hour after injection, eyes were microdissected to assess ICG distribution.
The ICG stained area was measured with Image-pro Plus 6 equipment. […] One of four eyes injected with the OCLX-SCDD 1100 μm POC prototype device had trace amounts of ICG in the vitreous. Based on the results in FIG. 12, to avoid intravitreal injection, alpha prototypes were redesigned to have a shorter length, targeting 925 μm, and future pig studies were performed with this needle length.

On the set-up of series [3]: species or system Yucatan minipig. The conditions noted are these: minipig, in vivo. From the text: OCLX-SCDD alpha prototype targeting of the SC space with ICG in pig eyes (FIG. 12).
Suprachoroidal injections enable precise, targeted delivery to the retina, retinal pigment epithelium (RPE), and choroid, potentially offering higher bioavailability to the diseased tissues while minimizing impact on anterior segment tissues. To improve SC gene therapy outcomes for AMD, we tested the alpha prototype device to determine whether the SCDD results in ICG dye distribution to the posterior pole. […] Indocyanine Green (ICG) (5 mg/ml), OS: 120 μl or OD: 150 μl, was injected using the OCLX-SCDD 925 μm alpha prototype as follows: (1) Mark and confirm selected injection site; (2) Insert the microneedle, being sure to create a small dimple on the ocular surface to allow the tissue to displace gently while the needle enters the suprachoroidal space; (3) Inject slowly and deliberately for 5 seconds; (4) After finishing the drug injection, hold the microinjector in place for an additional 5 seconds. Light pressure should be applied with a cotton swab after microinjector removal for about 5 seconds; and (5) Check IOP after injection. […]
To evaluate the effect of SC injection, images were taken after removal of the retina and RPE/Choroidal tissue (FIG. 14). The ICG stained area was measured with Image-pro Plus 6. […]

As to `CC1(C)C(/C=C/C=C/C=C/C=C2\N(CCCCS(=O)(=O)O)c3ccc4ccccc4c3C2(C)C)=[N+](CCCCS(=O)(=O)[O-])c2ccc3ccccc3c21` [ICG, Indocyanine Green], in series [1], the “OCLX-SCDD prototypes that delivered ICG dye to the SCS alone, no biodistribution to other ocular tissues” value came to 100%. Also, the “Comparison of ICG-stained area between POC4 and Clearside 1100 μm device” value in series [2] (1 hour after SC injection and microdissection) was “no significant difference”. Further, the “ICG stained area, total coverage area” value in series [2] (minipigs in vivo, device Clearside 1100 μm) is reported as 55%; in series [2] (minipigs in vivo, device OCLX-SCDD POC4 1100 μm), 55%. Besides, the “Eyes with trace amounts of ICG in the vitreous” value in series [2] (minipigs in vivo, device OCLX-SCDD 1100 μm POC prototype) is reported as “One of four”. In addition, the “Eyes with successful targeting of the SC space” value in series [3] is listed as 100%.

The record behind these values is patent publication US20250325402A1, “M[…] FOR I[…] METHODS OF USING THE SAME” ([…]., priority 2024, published 2025).
